Experimental findings from PMC5068570 (Journal of the American Chemical Society, 2016) are described below.

The target of the test is T1, Robo1 (Roundabout receptor 1; Robo1-GFP) (Homo sapiens, UniProt Q9Y6N7).
T1 sequence (Q9Y6N7 60-265 limits assumed): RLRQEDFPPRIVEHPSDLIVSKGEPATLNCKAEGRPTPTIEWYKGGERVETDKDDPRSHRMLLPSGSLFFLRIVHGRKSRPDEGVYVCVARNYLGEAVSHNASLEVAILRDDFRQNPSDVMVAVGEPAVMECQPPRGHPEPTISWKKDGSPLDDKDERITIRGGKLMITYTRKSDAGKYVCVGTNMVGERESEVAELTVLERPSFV
Description: SPR, Biacore T100, Robo1 immobilised on CM5. Format: binding. To be noted: HBS-EP pH 7.4, 150 mM NaCl, 25 °C; Langmuir 1:1 fit. (Surface plasmon resonance follows binding to a sensor surface in real time, without labels.)

What is called Kd is the constant that tells how readily two partners part at equilibrium. The substance “GlcA-GlcNS6S-IdoA-GlcNS-IdoA2S-GlcNS6S-IdoA-GlcNAc6S [compound 1]” displayed a Kd of 4.8 µM.
For IdoA-GlcNS6S-IdoA-GlcNS6S [compound 19], the Kd is approximately 20 µM.
